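GI50 = concentration required for 50% inhibition of growth. TGI marks complete inhibition of growth.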
Key:
Assay in all cases: growth of human tumour cells (NCI), 384-well format
[1] = test system: MOLT-4 leukemia
[2] = test system: HL-60(TB) leukemia
[3] = test system: HCC-2998 colon
[4] = test system: NCI-H322M lung
[5] = test system: SN12C renal
[6] = test system: SK-MEL-28 melanoma
[7] = test system: NCI/ADR-RES ovarian
[8] = test system: HT29 colon
[9] = test system: PC-3 prostate
[10] = test system: HOP-92 NSCLC
[11] = test system: MDA-MB-468 breast
[12] = test system: T-47D breast
[13] = test system: COLO 205 colon
[14] = test system: UO-31 renal
[15] = test system: NCI-H460 NSCLC
[16] = test system: SK-OV-3 ovarian
[17] = test system: NCI-H522 lung
[18] = test system: NCI-H226 lung
[19] = test system: SF-295 CNS
[20] = test system: SNB-19 CNS
[21] = test system: ACHN renal
[22] = test system: RXF 393 renal
[23] = test system: 786-0 renal
[24] = test system: SK-MEL-5 melanoma
[25] = test system: CCRF-CEM leukemia
[26] = test system: SR leukemia
[27] = test system: U251 glioblastoma
[28] = test system: A549 NSCLC
[29] = test system: M14 melanoma
[30] = test system: MDA-MB-231 breast
[31] = test system: RPMI-8226 leukemia
[32] = test system: TK-10 renal
[33] = test system: HCT-15 colon
[34] = test system: SF-539 CNS
[35] = test system: OVCAR-8 ovarian
[36] = test system: MCF7 breast
[37] = test system: EKVX NSCLC
[38] = test system: NCI-H23 lung
[39] = test system: K-562 leukemia
[40] = test system: OVCAR-3 ovarian
[41] = test system: DU-145 prostate
[42] = test system: IGROV1 ovarian
[43] = test system: KM12 colon
[44] = test system: BT-549 breast
[45] = test system: A498 renal
[46] = test system: CAKI-1 renal
[47] = test system: SNB-75 CNS
[48] = test system: UACC-62 melanoma
[49] = test system: MDA-MB-435 melanoma
[50] = test system: HS 578T breast
[51] = test system: HCT-116 colon
[52] = test system: SF-268 CNS
[53] = test system: MALME-3M melanoma
[54] = test system: HOP-62 NSCLC
[55] = test system: SW-620 colon
[56] = test system: LOX IMVI melanoma
[57] = test system: OVCAR-4 ovarian
[58] = test system: UACC-257 melanoma

C=CC(=O)N[C@@H]1CN(c2nc(Nc3cn(C)nc3OC)c3ncn(C)c3n2)C[C@H]1F
GI50 [1]: 16.6 µM
TGI [1]: 30.8 µM
GI50 [2]: 12.3 µM
TGI [2]: 25.1 µM
GI50 [3]: 20.9 µM
TGI [3]: 50 µM
GI50 [4]: 0.0896 µM
TGI [4]: 12.7 µM
GI50 [5]: 34.2 µM
TGI [5]: > 100 µM
GI50 [6]: 28.5 µM
TGI [6]: > 100 µM
GI50 [7]: > 100 µM
TGI [7]: > 100 µM
GI50 [8]: 20.5 µM
TGI [8]: 54.4 µM
GI50 [9]: 39.4 µM
TGI [9]: > 100 µM
GI50 [10]: 23.4 µM
TGI [10]: > 100 µM
GI50 [11]: 0.0291 µM
TGI [11]: 0.114 µM
GI50 [12]: 20.7 µM
TGI [12]: > 100 µM
GI50 [13]: 23 µM
TGI [13]: 53.8 µM
GI50 [14]: 26.3 µM
TGI [14]: > 100 µM
GI50 [15]: 21.9 µM
TGI [15]: 42.1 µM
GI50 [16]: 12.2 µM
TGI [16]: > 100 µM
GI50 [17]: 0.0389 µM
TGI [17]: 15.7 µM
GI50 [18]: 20.2 µM
TGI [18]: 62.2 µM
GI50 [19]: 41.5 µM
TGI [19]: > 100 µM
GI50 [20]: 30 µM
TGI [20]: > 100 µM
GI50 [21]: 1.9 µM
TGI [21]: > 100 µM
GI50 [22]: 24.8 µM
TGI [22]: 83.8 µM
GI50 [23]: 37.3 µM
TGI [23]: > 100 µM
GI50 [24]: 19.2 µM
TGI [24]: 49.4 µM
GI50 [25]: 15.5 µM
TGI [25]: 29.2 µM
GI50 [26]: 1.52 µM
TGI [26]: 3.2 µM
GI50 [27]: 33.2 µM
TGI [27]: > 100 µM
GI50 [28]: 21.4 µM
TGI [28]: > 100 µM
GI50 [29]: 16 µM
TGI [29]: 41.8 µM
GI50 [30]: 24.3 µM
TGI [30]: 98.4 µM
GI50 [31]: 18 µM
TGI [31]: 36.7 µM
GI50 [32]: 0.319 µM
TGI [32]: 39.1 µM
GI50 [33]: 37.1 µM
TGI [33]: > 100 µM
GI50 [34]: 29.9 µM
TGI [34]: 89.6 µM
GI50 [35]: 19.5 µM
TGI [35]: 58.4 µM
GI50 [36]: 18 µM
TGI [36]: 73.7 µM
GI50 [37]: 0.338 µM
TGI [37]: 24.9 µM
GI50 [38]: 16.2 µM
TGI [38]: 35.6 µM
GI50 [39]: 23.2 µM
TGI [39]: 52 µM
GI50 [40]: 12.3 µM
TGI [40]: 37.2 µM
GI50 [41]: 13.8 µM
TGI [41]: 49.1 µM
GI50 [42]: 3.27 µM
TGI [42]: 30.3 µM
GI50 [43]: 39.2 µM
TGI [43]: > 100 µM
GI50 [44]: 25.4 µM
TGI [44]: 70.9 µM
GI50 [45]: 27.6 µM
TGI [45]: > 100 µM
GI50 [46]: 1.26 µM
TGI [46]: > 100 µM
GI50 [47]: 22.9 µM
TGI [47]: 59.9 µM
GI50 [48]: 23.1 µM
TGI [48]: > 100 µM
GI50 [49]: 17.2 µM
TGI [49]: 34.3 µM
GI50 [50]: 21.5 µM
TGI [50]: 55.9 µM
GI50 [51]: 33.4 µM
TGI [51]: > 100 µM
GI50 [52]: 29 µM
TGI [52]: > 100 µM
GI50 [53]: 17.5 µM
TGI [53]: 60.2 µM
GI50 [54]: 31.9 µM
TGI [54]: > 100 µM
GI50 [55]: 24.4 µM
TGI [55]: 62.2 µM
GI50 [56]: 34.6 µM
TGI [56]: > 100 µM
GI50 [57]: 49.8 µM
TGI [57]: > 100 µM
GI50 [58]: 33.6 µM
TGI [58]: > 100 µM

Source: PubChem BioAssay (NCI)
